Assays:
late watergrass = assay: Test Example 2: herbicidal activity, application during weed generation under submerged conditions (Table 17, symbol A); format: in vivo, late watergrass (Echinochloa oryzicola); settings: AAH 320 g/ha; application during weed generation, submerged conditions
Outline: (§1)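 3-wk visual-criteria score after one water-surface dose. Emulsion formulation, water-diluted to set rate; applied at 1–2 leaf stage; alluvial soil, 4 cm standing water; seeds co-sown; greenhouse 25–30° C.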

Japanese bulrush = assay: Test Example 2: herbicidal activity, application during weed generation under submerged conditions (Table 17, symbol B); format: in vivo, Japanese bulrush (Schoenoplectus juncoides); settings: AAH 320 g/ha; application during weed generation, submerged conditions
Outline: as §1

oval-leafed pondweed = assay: Test Example 2: herbicidal activity, application during weed generation under submerged conditions (Table 17, symbol C); format: in vivo, oval-leafed pondweed (Monochoria vaginalis); settings: AAH 320 g/ha; application during weed generation, submerged conditions
Outline: as §1

barnyard grass [1] = assay: Test Example 3: herbicidal effect by foliage application, Wagner pot (Table 18, symbol H); format: in vivo, barnyard grass (Echinochloa crus-galli); settings: 320 g/ha
Outline: (§2)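 Plants were sown in alluvial soil held under 0.1–0.5 cm standing water and grown 14 days in a greenhouse at 25–30 °C. An emulsifiable formulation, water-diluted to the set dose, was then sprayed onto the foliage, and effects were scored three weeks later using previously defined criteria.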

Chinese sprangletop = assay: Test Example 3: herbicidal effect by foliage application, Wagner pot (Table 18, symbol D); format: in vivo, chinese sprangletop (Leptochloa chinensis); settings: 320 g/ha
Outline: as §2

rice flat sedge = assay: Test Example 3: herbicidal effect by foliage application, Wagner pot (Table 18, symbol E); format: in vivo, rice flat sedge (Cyperus iria); settings: 320 g/ha
Outline: as §2

southern crabgrass [2] = assay: Test Example 4: herbicidal effect by soil treatment (Table 19, symbol F); format: in vivo, southern crabgrass (Digitaria ciliaris)
Outline: (§3)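 Step 1: sow seeds in sterilized diluvial soil, cover ~1.5 cm. Step 2: spray diluted emulsion onto soil surface at predetermined rate. Step 3: greenhouse, 25–30° C, three weeks. Step 4: grade effect on each plant by earlier criteria.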

green foxtail [3] = assay: Test Example 4: herbicidal effect by soil treatment (Table 19, symbol G); format: in vivo, green foxtail (Setaria viridis)
Outline: as §3

barnyard grass [4] = assay: Test Example 4: herbicidal effect by soil treatment (Table 19, symbol H); format: in vivo, barnyard grass (Echinochloa crus-galli)
Outline: as §3

wild oat [5] = assay: Test Example 4: herbicidal effect by soil treatment (Table 19, symbol I); format: in vivo, wild oat (Avena fatua)
Outline: as §3

blackgrass [6] = assay: Test Example 4: herbicidal effect by soil treatment (Table 19, symbol J); format: in vivo, blackgrass (Alopecurus myosuroides)
Outline: as §3

Italian ryegrass [7] = assay: Test Example 4: herbicidal effect by soil treatment (Table 19, symbol K); format: in vivo, Italian ryegrass (Lolium multiflorum)
Outline: as §3

windgrass [8] = assay: Test Example 4: herbicidal effect by soil treatment (Table 19, symbol L); format: in vivo, windgrass (Apera spica-venti)
Outline: as §3

velvetleaf [9] = assay: Test Example 4: herbicidal effect by soil treatment (Table 19, symbol M); format: in vivo, velvetleaf (Abutilon theophrasti)
Outline: as §3

redroot pigweed [10] = assay: Test Example 4: herbicidal effect by soil treatment (Table 19, symbol N); format: in vivo, redroot pigweed (Amaranthus retroflexus)
Outline: as §3

lambsquarters [11] = assay: Test Example 4: herbicidal effect by soil treatment (Table 19, symbol O); format: in vivo, lambsquarters (Chenopodium album)
Outline: as §3

chickweed [12] = assay: Test Example 4: herbicidal effect by soil treatment (Table 19, symbol P); format: in vivo, common chickweed (Stellaria media)
Outline: as §3

persian speedwell [13] = assay: Test Example 4: herbicidal effect by soil treatment (Table 19, symbol R); format: in vivo, Persian speedwell (Veronica persica)
Outline: as §3

southern crabgrass [14] = assay: Test Example 5: herbicidal effect by foliage application, plastic box (Table 20, symbol F); format: in vivo, southern crabgrass (Digitaria ciliaris); settings: 320 g/ha, evaluated three weeks after application
Outline: (§4)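 Foliar spray test: emulsion formulation diluted in water to a set application rate, sprayed onto 14-day-old plants raised in diluvial soil at 25° C to 30° C under glass. Both herbicidal effect and crop effect rated visually three weeks later.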

green foxtail [15] = assay: Test Example 5: herbicidal effect by foliage application, plastic box (Table 20, symbol G); format: in vivo, green foxtail (Setaria viridis); settings: 320 g/ha, evaluated three weeks after application
Outline: as §4

barnyard grass [16] = assay: Test Example 5: herbicidal effect by foliage application, plastic box (Table 20, symbol H); format: in vivo, barnyard grass (Echinochloa crus-galli); settings: 320 g/ha, evaluated three weeks after application
Outline: as §4

wild oat [17] = assay: Test Example 5: herbicidal effect by foliage application, plastic box (Table 20, symbol I); format: in vivo, wild oat (Avena fatua); settings: 320 g/ha, evaluated three weeks after application
Outline: as §4

blackgrass [18] = assay: Test Example 5: herbicidal effect by foliage application, plastic box (Table 20, symbol J); format: in vivo, blackgrass (Alopecurus myosuroides); settings: 320 g/ha, evaluated three weeks after application
Outline: as §4

Italian ryegrass [19] = assay: Test Example 5: herbicidal effect by foliage application, plastic box (Table 20, symbol K); format: in vivo, Italian ryegrass (Lolium multiflorum); settings: 320 g/ha, evaluated three weeks after application
Outline: as §4

windgrass [20] = assay: Test Example 5: herbicidal effect by foliage application, plastic box (Table 20, symbol L); format: in vivo, windgrass (Apera spica-venti); settings: 320 g/ha, evaluated three weeks after application
Outline: as §4

velvetleaf [21] = assay: Test Example 5: herbicidal effect by foliage application, plastic box (Table 20, symbol M); format: in vivo, velvetleaf (Abutilon theophrasti); settings: 320 g/ha, evaluated three weeks after application
Outline: as §4

redroot pigweed [22] = assay: Test Example 5: herbicidal effect by foliage application, plastic box (Table 20, symbol N); format: in vivo, redroot pigweed (Amaranthus retroflexus); settings: 320 g/ha, evaluated three weeks after application
Outline: as §4

lambsquarters [23] = assay: Test Example 5: herbicidal effect by foliage application, plastic box (Table 20, symbol O); format: in vivo, lambsquarters (Chenopodium album); settings: 320 g/ha, evaluated three weeks after application
Outline: as §4

chickweed [24] = assay: Test Example 5: herbicidal effect by foliage application, plastic box (Table 20, symbol P); format: in vivo, common chickweed (Stellaria media); settings: 320 g/ha, evaluated three weeks after application
Outline: as §4

persian speedwell [25] = assay: Test Example 5: herbicidal effect by foliage application, plastic box (Table 20, symbol R); format: in vivo, Persian speedwell (Veronica persica); settings: 320 g/ha, evaluated three weeks after application
Outline: as §4

[26] = amount of applied herbicide 320 g/ha
[27] = foliage application after 14-day growth

SMILES: Cc1nn(C)c(=O)c(-c2c(-c3ccc(OC4CCOC4)cc3)sc3ccc(F)cc23)c1O (stereo not drawn) [2-074]
- herbicidal effect rating, A: late watergrass (late watergrass): 0 (Herbicidal rate of 5% or less (almost no effect))
- herbicidal effect rating, B: Japanese bulrush (Japanese bulrush): 3 (Herbicidal rate of 40% or more and less than 70%)
- herbicidal effect rating, C: oval-leafed pondweed (oval-leafed pondweed): 0 (Herbicidal rate of 5% or less (almost no effect))
- herbicidal effect on H (barnyard grass), rating 0-5 (barnyard grass [1]): 5 (Herbicidal rate of 90% or more (almost completely withered))
- herbicidal effect on D (Chinese sprangletop), rating 0-5 (Chinese sprangletop): 5 (Herbicidal rate of 90% or more (almost completely withered))
- herbicidal effect on E (rice flat sedge), rating 0-5 (rice flat sedge): 5 (Herbicidal rate of 90% or more (almost completely withered))
- herbicidal effect rating, F: southern crabgrass (southern crabgrass [2]; 320 g/ha): 5 (Herbicidal rate of 90% or more (almost completely withered))
- herbicidal effect rating, G: green foxtail (green foxtail [3]; 320 g/ha): 5 (Herbicidal rate of 90% or more (almost completely withered))
- herbicidal effect rating, H: barnyard grass (barnyard grass [4]; 320 g/ha): 5 (Herbicidal rate of 90% or more (almost completely withered))
- herbicidal effect rating, I: wild oat (wild oat [5]; 320 g/ha): 0 (Herbicidal rate of 5% or less (almost no effect))
- herbicidal effect rating, J: blackgrass (blackgrass [6]; 320 g/ha): 1 (Herbicidal rate of 5% or more and less than 20%)
- herbicidal effect rating, K: Italian ryegrass (Italian ryegrass [7]; 320 g/ha): 3 (Herbicidal rate of 40% or more and less than 70%)
- herbicidal effect rating, L: windgrass (windgrass [8]; 320 g/ha): 3 (Herbicidal rate of 40% or more and less than 70%)
- herbicidal effect rating, M: velvetleaf (velvetleaf [9]; 320 g/ha): 3 (Herbicidal rate of 40% or more and less than 70%)
- herbicidal effect rating, N: redroot pigweed (redroot pigweed [10]; 320 g/ha): 5 (Herbicidal rate of 90% or more (almost completely withered))
- herbicidal effect rating, O: lambsquarters (lambsquarters [11]; 320 g/ha): 5 (Herbicidal rate of 90% or more (almost completely withered))
- herbicidal effect rating, P: chickweed (chickweed [12]; 320 g/ha): 3 (Herbicidal rate of 40% or more and less than 70%)
- herbicidal effect rating, R: persian speedwell (persian speedwell [13]; 320 g/ha): 5 (Herbicidal rate of 90% or more (almost completely withered))
- herbicidal effect on F: southern crabgrass (southern crabgrass [14]; foliage application): 5 (Herbicidal rate of 90% or more (almost completely withered))
- herbicidal effect on G: green foxtail (green foxtail [15]; foliage application): 5 (Herbicidal rate of 90% or more (almost completely withered))
- herbicidal effect on H: barnyard grass (barnyard grass [16]; foliage application): 5 (Herbicidal rate of 90% or more (almost completely withered))
- herbicidal effect on I: wild oat (wild oat [17]; foliage application): 4 (Herbicidal rate of 70% or more and less than 90%)
- herbicidal effect on J: blackgrass (blackgrass [18]; foliage application): 5 (Herbicidal rate of 90% or more (almost completely withered))
- herbicidal effect on K: Italian ryegrass (Italian ryegrass [19]; foliage application): 4 (Herbicidal rate of 70% or more and less than 90%)
- herbicidal effect on L: windgrass (windgrass [20]; foliage application): 5 (Herbicidal rate of 90% or more (almost completely withered))
- herbicidal effect on M: velvetleaf (velvetleaf [21]; foliage application): 5 (Herbicidal rate of 90% or more (almost completely withered))
- herbicidal effect on N: redroot pigweed (redroot pigweed [22]; foliage application): 5 (Herbicidal rate of 90% or more (almost completely withered))
- herbicidal effect on O: lambsquarters (lambsquarters [23]; foliage application): 5 (Herbicidal rate of 90% or more (almost completely withered))
- herbicidal effect on P: chickweed (chickweed [24]; foliage application): 5 (Herbicidal rate of 90% or more (almost completely withered))
- herbicidal effect on R: persian speedwell (persian speedwell [25]; foliage application): 5 (Herbicidal rate of 90% or more (almost completely withered))

SMILES: CCCC(=O)Oc1c(C)nn(C)c(=O)c1-c1c(-c2ccccc2OC)sc2c(F)cccc12 [4-004]
- herbicidal effect rating, A: late watergrass (late watergrass): 3 (Herbicidal rate of 40% or more and less than 70%)
- herbicidal effect rating, B: Japanese bulrush (Japanese bulrush): 0 (Herbicidal rate of 5% or less (almost no effect))
- herbicidal effect rating, C: oval-leafed pondweed (oval-leafed pondweed): 2 (Herbicidal rate of 20% or more and less than 40%)
- herbicidal effect on barnyard grass (H) (barnyard grass [1]): 4 (Herbicidal rate of 70% or more and less than 90%)
- herbicidal effect on Chinese sprangletop (D) (Chinese sprangletop): 3 (Herbicidal rate of 40% or more and less than 70%)
- herbicidal effect on rice flat sedge (E) (rice flat sedge): 4 (Herbicidal rate of 70% or more and less than 90%)
- Herbicidal effect by soil treatment, F: southern crabgrass (southern crabgrass [2]; [26]): 0 (Herbicidal rate of 5% or less (almost no effect))
- Herbicidal effect by soil treatment, G: green foxtail (green foxtail [3]; [26]): 0 (Herbicidal rate of 5% or less (almost no effect))
- Herbicidal effect by soil treatment, H: barnyard grass (barnyard grass [4]; [26]): 1 (Herbicidal rate of 5% or more and less than 20%)
- Herbicidal effect by soil treatment, I: wild oat (wild oat [5]; [26]): 0 (Herbicidal rate of 5% or less (almost no effect))
- Herbicidal effect by soil treatment, J: blackgrass (blackgrass [6]; [26]): 0 (Herbicidal rate of 5% or less (almost no effect))
- Herbicidal effect by soil treatment, K: Italian ryegrass (Italian ryegrass [7]; [26]): 0 (Herbicidal rate of 5% or less (almost no effect))
- Herbicidal effect by soil treatment, L: windgrass (windgrass [8]; [26]): 0 (Herbicidal rate of 5% or less (almost no effect))
- Herbicidal effect by soil treatment, M: velvetleaf (velvetleaf [9]; [26]): 0 (Herbicidal rate of 5% or less (almost no effect))
- Herbicidal effect by soil treatment, N: redroot pigweed (redroot pigweed [10]; [26]): 3 (Herbicidal rate of 40% or more and less than 70%)
- Herbicidal effect by soil treatment, O: lambsquarters (lambsquarters [11]; [26]): 3 (Herbicidal rate of 40% or more and less than 70%)
- Herbicidal effect by soil treatment, P: chickweed (chickweed [12]; [26]): 1 (Herbicidal rate of 5% or more and less than 20%)
- Herbicidal effect by soil treatment, R: persian speedwell (persian speedwell [13]; [26]): 0 (Herbicidal rate of 5% or less (almost no effect))
- herbicidal effect on F: southern crabgrass (evaluation grade 0-5) (southern crabgrass [14]; [27]): 3 (Herbicidal rate of 40% or more and less than 70%)
- herbicidal effect on G: green foxtail (evaluation grade 0-5) (green foxtail [15]; [27]): 4 (Herbicidal rate of 70% or more and less than 90%)
- herbicidal effect on H: barnyard grass (evaluation grade 0-5) (barnyard grass [16]; [27]): 3 (Herbicidal rate of 40% or more and less than 70%)
- herbicidal effect on I: wild oat (evaluation grade 0-5) (wild oat [17]; [27]): 0 (Herbicidal rate of 5% or less (almost no effect))
- herbicidal effect on J: blackgrass (evaluation grade 0-5) (blackgrass [18]; [27]): 0 (Herbicidal rate of 5% or less (almost no effect))
- herbicidal effect on K: Italian ryegrass (evaluation grade 0-5) (Italian ryegrass [19]; [27]): 0 (Herbicidal rate of 5% or less (almost no effect))
- herbicidal effect on L: windgrass (evaluation grade 0-5) (windgrass [20]; [27]): 0 (Herbicidal rate of 5% or less (almost no effect))
- herbicidal effect on M: velvetleaf (evaluation grade 0-5) (velvetleaf [21]; [27]): 4 (Herbicidal rate of 70% or more and less than 90%)
- herbicidal effect on N: redroot pigweed (evaluation grade 0-5) (redroot pigweed [22]; [27]): 5 (Herbicidal rate of 90% or more (almost completely withered))
- herbicidal effect on O: lambsquarters (evaluation grade 0-5) (lambsquarters [23]; [27]): 2 (Herbicidal rate of 20% or more and less than 40%)
- herbicidal effect on P: chickweed (evaluation grade 0-5) (chickweed [24]; [27]): 5 (Herbicidal rate of 90% or more (almost completely withered))
- herbicidal effect on R: persian speedwell (evaluation grade 0-5) (persian speedwell [25]; [27]): 4 (Herbicidal rate of 70% or more and less than 90%)

— US20230085307A1, “PYRIDAZINONE COMPOUND AND HERBICIDE” (NISSAN CHEMICAL CORPORATION, priority 2019, published 2023)
